In the supplement of paper PMC5770543:
± gives the standard deviation.

Columns and labels:
[1] = tested on: Toxoplasma gondii RH tachyzoites; assay: % growth inhibition vs DMSO (48 h luciferase); higher = more inhibition; conditions: 10 µM;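 note: tested in triplicate wells of 96-well plates on confluent HFF monolayers, with 1% DMSO wells as negative control in four replicates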
[2] = tested on: Plasmodium falciparum 3D7; assay: % inhibition of schizont-to-ring transition vs DMSO; higher = more inhibition
Outline: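 Schizont-to-ring transition inhibition compares new ring formation with that in vehicle controls. Synchronised P. falciparum schizonts (about 40–42 hours post-invasion, 1% parasitemia, 2.5% hematocrit, AlbuMAX-supplemented RPMI) were exposed to 1, 3 or 10 µM compound, after which rings were counted by Hoechst 33342 flow cytometry across three experiments.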

[3] = tested on: Plasmodium falciparum 3D7; assay: EC50 growth inhibition (60 h, SYBR Green); conditions: stage: ring-stage start

Structure (SMILES)	% growth inhibition [1] [%]	% inhibition of schizont-to-ring transition ([2]; 1 µM) [%]	% inhibition of schizont-to-ring transition ([2]; 3 µM) [%]	% inhibition of schizont-to-ring transition ([2]; 10 µM) [%]	EC50 growth inhibition [3] [µM]
CN1CCN(c2c3c(c(C#N)c4nc5ccccc5n24)CCC3)CC1	39.4 ± 4.5	< 0	5.66	21.3	
N=c1c2ccccc2nnn1-c1cccc(C(F)(F)F)c1	64.1 ± 4.6	44.5	48.1	54.3	5.76
O=C(NC1CCCC1)c1ccc(N2CCC(NCc3cccc(C(F)(F)F)c3)CC2)cc1	74.7 ± 1.2	0.815	7.92	41.6	2.01
O=C(NCc1ccco1)C1CCN(S(=O)(=O)c2ccc(Cl)cc2)CC1	55.4 ± 6.6	21.3	34.6	57.8	1.03
CN(C)c1ccc(-c2nc3cc(N)ccc3[nH]2)cc1	40.4 ± 8.4	5.79	18.4	66.7	3.02
CC(C)(C)c1ccc(C(=O)Nc2c3c(nn2-c2cccc(Cl)c2)CSC3)cc1	46.7 ± 4.1	15.4	19.9	32.6	
CCOc1cccc2sc(N(Cc3cccnc3)C(=O)C3CCCCC3)nc12	29.9 ± 10	35.3	38.9	56.6	4.28
CCOc1c(Cl)cc(CNCC(O)c2ccccc2)cc1OC (stereo not drawn)	21.7 ± 8.2	11.2	15.1	50.5	0.956
COc1ccccc1CNC(=O)CCn1c(=O)[nH]c2ccccc2c1=O	79.9 ± 5.7	8.85	11.5	18.6	0.663
CCOc1ccc(CCNC(=O)c2cccs2)cc1OCC	72 ± 8.3	10.1	47	68.3	0.691
CCCCN(CCCC)S(=O)(=O)c1ccc(NC(=O)c2ccco2)cc1	74.8 ± 2.1	20	26.6	50.7	1.53
CC1CC(C)CN(C(=O)c2ccc(Cl)cc2Cl)C1 (stereo not drawn)	31.6 ± 5	< 0	< 0	13.8	1.02
O=C(Nc1nc(-c2ccccn2)cs1)c1ccccc1Br	98.44 ± 0.08	11	13.5	34.1	2.16
CCCCOc1ccc(C(=O)Nc2cc(C)on2)cc1	< 0	4.53	20.6	35.9	5.76
CCC(c1ccccc1)c1nn2c(-c3cccs3)nnc2s1 (stereo not drawn)	67.1 ± 4.9	48.6	60	65.8	0.147
Cc1ccc(Nc2nc(-c3ccccn3)cs2)cc1	99.62 ± 0.17	24.9	40.7	28.2	3.06
COc1cccc(C(=O)Nc2ccc(-c3nc4ccccc4[nH]3)cc2)c1	53.9 ± 1.5	3.81	12.6	34.9	1.62
COc1ccc(C(=O)C2CC2c2ccc(Cl)cc2)cc1 (stereo not drawn)	22 ± 8.6	8.22	39.3	58.3	2.7
COc1ccc2nc(N)nc(C)c2c1	41.7 ± 16	2.26	6.22	17.5	
CCOC(=O)c1ccc2nc(-c3ccccc3)cc(O)c2c1	72.2 ± 6	20.2	29.4	44.6	0.195
COc1cc(OC)cc(N2C(=O)N(Cc3ccc(C(C)(C)C)cc3)c3ccccc3S2(=O)=O)c1	57.3 ± 12	13.8	15.2	47.7	3.5
CCOC(=O)c1cnc2ccc(CC)cc2c1O	78.7 ± 3.3	49.9	61.3	62.8	0.482
CCCN(CCC)CCCNC(=O)c1cc2c(-c3ccc(OC)c(OC)c3)nn(C)c2s1	41.4 ± 13	14.9	37.6	68	1.12
COC(=O)c1ccc(C2C3=C(O)CC(c4ccc(F)cc4)CC3=Nc3ccccc3N2C(=O)c2ccccc2)cc1 (stereo not drawn)	61.3 ± 10	35.1	51.7	56	6.36
CCCc1c(CC)c(=N)c2ccccc2n1C	38.7 ± 9.2	7.3	8.61	31	6.03
Oc1ccccc1CNCC12CC3CC(CC(C3)C1)C2	52.8 ± 12	64	64.7	67.1	0.0961

Structure (SMILES)	% growth inhibition [1] [%]	% inhibition of schizont-to-ring transition ([2]; 1 µM) [%]	% inhibition of schizont-to-ring transition ([2]; 3 µM) [%]	% inhibition of schizont-to-ring transition ([2]; 10 µM) [%]	EC50 growth inhibition [3] [µM]
O=C(Nc1ccccc1O)c1ccc(-c2ccc(Cl)cc2Cl)o1	23.8 ± 5.9	28.6	26.9	48	1.67
Cc1ccc2cc3c(N)c4c(C)ccc(C)c4nc3nc2c1	56.3 ± 6.5	29	72.1	79.8	0.432
CC1CN(C(=O)c2sc3ccccc3c2Cl)CC(C)O1 (stereo not drawn)	74 ± 3.4	15.7	21.4	24.2	0.0291
O=C(Nc1cccc(-c2nc3ccccc3[nH]2)c1)c1cccc(NC(=O)c2ccco2)c1	48.6 ± 19	28.5	37.6	52	6.23
CCOC(=O)c1c[nH]c2c(CC)cccc2c1=O	29.3 ± 36	28.5	28.8	40.9	3.28
Cc1cc(Nc2ccc(Cl)cc2)n2nc(C(F)(F)F)nc2n1	62.7 ± 3.6	52.9	59.3	58.4	0.0562
Cc1ccc(-c2cc3c(SCC(=O)Nc4cc(C(F)(F)F)ccc4Cl)nccn3n2)cc1	48.6 ± 19	23.9	24.5	30.8	2.14
COc1cc2c3cc1Oc1c(OC)c(OC)cc4c1C(Cc1ccc(O)c(c1)Oc1ccc(cc1)CC3N(C)CC2)N(C)CC4 (stereo not drawn)	51.7 ± 6.6	0.0123	3.67	27.2	1.36
CCN(CC)CCCNc1ccnc2cc3ccccc3cc12	29.2 ± 27	19.5	41.2	42.7	0.312
CCCCCC(=O)N1c2ccccc2N=C2CC(c3ccc(OC)c(OC)c3)CC(O)=C2C1c1ccc(C(F)(F)F)cc1 (stereo not drawn)	60.4 ± 3	47.1	59.5	73.2	0.205
FC(F)(F)c1cccc(Nc2nc(-c3ccccc3)nc3ncccc23)c1	51.1 ± 1.4	24.9	33.8	42.3	
N#Cc1nc(Cc2cccc3ccccc23)oc1N1CCN(C(c2ccccc2)c2ccccc2)CC1	44.8 ± 8.8	21.5	27.3	52.8	5.26
Cc1ccc2c(C)nc(Nc3nc(C)cc(-c4ccccc4)n3)nc2c1	70.4 ± 25	17.7	37.8	55.7	6.67
CCN1CCN(c2cc(C)c3cc(NC(=O)c4ccc(OC)c(OC)c4)ccc3n2)CC1	56.5 ± 4.2	21.3	45.6	63.3	0.814
O=C(NC1CCN(Cc2ccccc2)CC1)c1cc(-c2ccncc2)nc2ccc(Cl)cc12	54.7 ± 2.7	22.1	60.9	63.4	1.92
O=C1CC(O)(C(F)(F)C(F)(F)F)Oc2ccccc21 (stereo not drawn)	65.3 ± 2.5	5.46	15.3	47.7	3
O=C(Nc1ccc(C23CC4CC(CC(c5ccccc5)(C4)C2)C3)cc1)c1cccs1	76.8 ± 7.4	17.5	21.8	42.3	7.3
C=C(C)CCC(C)N1CCC(N2CCC(C(=O)NCCc3ccccc3)CC2)CC1 (stereo not drawn)	20.9 ± 16	< 0	1.71	48	3.96
Cc1[nH]c(-c2ccc(F)cc2)cc1C(=O)NC1CCN(Cc2ccccc2)CC1	44.1 ± 26	25.3	47	64.1	0.58
O=C(c1ccccc1F)N(Cc1ccc(Cl)cc1)c1ccccn1	82.2 ± 3.3	2.8	7.52	13.9	5.7
COc1cccc(C=Cc2nc(=O)c3ccccc3o2)c1OC	70.48 ± 0.68	34.9	40.3	49.7	0.317
Cc1cc(NCCN2CCCCC2)c2ccc3ccccc3c2n1	78.3 ± 6.7	46.4	52.1	69.7	0.123
CCOC(=O)c1c(C)n(-c2ccc(Cl)cc2)c2ccc(OC(=O)C=Cc3ccccc3)cc12	69.3 ± 5	5	7.44	21.6	1.02
c1ccc(Cn2c(N=Nc3c(Nc4ccccc4)ccc4ccccc34)nc3ccccc32)cc1	29.1 ± 12	14.6	25.9	52.2	3.52
COCCn1c(C)nc2ccccc2c1=O	57.4 ± 3.5	6.75	13.7	31.5	1.52
CCOc1cc(Br)c(C(C)NC(=O)c2cccc(OC)c2)cc1OCC (stereo not drawn)	34.7 ± 18	29.1	67.8	78	0.427

Structure (SMILES)	% growth inhibition [1] [%]	% inhibition of schizont-to-ring transition ([2]; 1 µM) [%]	% inhibition of schizont-to-ring transition ([2]; 3 µM) [%]	% inhibition of schizont-to-ring transition ([2]; 10 µM) [%]	EC50 growth inhibition [3] [µM]
Cc1ccc(N2C(=O)C3C(C2=O)C2(c4ccccc4)C(=O)C3(c3ccccc3)C(c3ccccc3)=C2c2ccccc2)cc1 (stereo not drawn)	55.5 ± 9.4	< 0	< 0	24.4	4.25
FC(F)(F)c1cccc(CNC2CCN(CCc3ccccc3)CC2)c1	45.5 ± 8.4	23.2	60	69.5	0.201
COc1ccc(C2=C(c3ccc(OC)cc3)C3(c4ccccc4)C(=O)C2(c2ccccc2)C2C(=O)N(c4ccc(C)cc4)C(=O)C23)cc1 (stereo not drawn)	41.5 ± 7.4	< 0	< 0	24.9	
CCC(C)NCC(O)(c1ccc(Cl)cc1)c1ccc(Cl)cc1 (stereo not drawn)	74.6 ± 8.3	38.4	57	63.8	0.632
COc1ccc(-c2nc(NC(=O)CS(=O)(=O)c3ccc(F)cc3)sc2C)cc1	69.4 ± 1.6	9.86	32.3	43.6	0.405
Oc1c2c(nc3cc(-c4ccccc4)nn13)CCCC2	26.5 ± 12	0.423	6.47	21.9	3.79
CCOc1c(Br)cc(C2C(C(=O)OC)=CN(C)C=C2C(=O)OC)cc1OC	70.4 ± 17	49.6	75.9	79.6	0.48
CCOc1cc2c(cc1OCC)C(c1cc(Cl)ccc1O)NCC2 (stereo not drawn)	46.8 ± 4.8	3.63	17.7	64.1	1.8
CN1CCN(c2ncnc3c2[nH]c2ccc(Cl)cc23)CC1	28.6 ± 4.2	34	43.8	54.7	0.894
Fc1ccc2[nH]c3c(NCCCN4CCOCC4)ncnc3c2c1	34.5 ± 17	3.9	32.7	53.9	0.466
Cc1nc2ccccc2c(O)c1CC=C(Cl)Cl	79.46 ± 0.64	10.8	31.3	67.4	4.56
COC(=O)c1ccc(Cl)c2c1C1C=CCC1C(c1cccc3ccccc13)N2 (stereo not drawn)	55.6 ± 32	8.04	15	46.6	6.22
CN(C)CCNc1cc(-c2ccccc2)nc2ccccc12	66.7 ± 1.5	6.36	21.7	63.2	0.936
COc1ccc(C(=O)NC(c2ccc(Cl)cc2Cl)c2cc(Cl)c3cccnc3c2O)cc1 (stereo not drawn)	32.1 ± 5.2	19.2	19.5	25.5	
CCCCc1ccc(NS(=O)(=O)c2cc3c4c(c2)CCN4C(=O)CC3)cc1	36.5 ± 32	12	12.8	34.4	
COc1cccc(Cn2c(Oc3ccccc3)nc3c2c(=O)n(C)c(=O)n3C)c1	72.4 ± 4.8	23.6	27.1	45.9	0.516
CC(=O)c1ccc(NC(=O)CSc2nc(-c3ccccc3Cl)ns2)cc1	78.8 ± 6.6	34	71.8	76.5	0.412
Cc1ccc(-c2cc3c(nn2)-c2ccccc2C3=O)cc1	< 0	33.1	51.8	59.3	0.214
CC(C)(C)c1ccc2c(c1)CN(Cc1ccc(Cl)cc1)CO2	34.1 ± 8.2	16.8	49.9	66.2	1.12
Cc1ccccc1OCCSc1nc2ccc(NC(=O)c3ccccc3)cc2s1	29.6 ± 11	32	33	43.1	
O=C(Nc1ccc(-c2nc3cc(NC(=O)c4ccc(Cl)cc4)ccc3[nH]2)cc1)c1ccc(Cl)cc1	21.6 ± 3	< 0	18.9	41.1	
CCC(=O)Nc1nnc(Cc2ccc(OC)c(OC)c2)s1	56.6 ± 7.6	4.3	5.07	13.6	
CCOC(=O)C1=C(C)N=c2sc(=Cc3cc(Cl)ccc3O)c(=O)n2C1c1ccc(OC)cc1 (stereo not drawn)	59.4 ± 6.4	0.526	46.2	61.3	
Cc1cccc(-n2ncc3c(O)nc(-n4nc(C)cc4NC(=O)c4cc5ccccc5o4)nc32)c1	30.2 ± 52	16.7	23.7	27.8	
